# Results taken from patent US20260207754A1, “MET PROTEIN DEGRADATION INDUCING COMPOUND” (ONCOZEN CO., LTD., priority 2022, published 2026).
# Experiments:
# Format in all cases: cell-based
# [1] = test system: H1437 cells; assay: Cell viability assay (CCK8); details: three days treatment
# Experimental: (§1) This experiment involves treating cells with each of the compounds prepared in Examples 1 to 11, and then observing changes in cell cytotoxicity and cell count. The IC50 values, derived from the changes in cell count, can be used to assess the cancer cell growth inhibition and anti-cancer effects of the compound of the present invention.
# (§2) Cells (H596 or H1437 cells) were seeded in a 96-well plate at 3×10^3 cells per well and then cultured for more than 12 hours. After removing the media, each well was treated with 200 μl of the respective diluted compounds prepared in Examples 1 to 11. Three days later, the media was removed, and each well was treated with 10 μl of CCK8 reagent+90 μl of media. After 3-4 hours of reaction, the absorbance was measured using an ELISA reader at a wavelength of 450 nm.
# [2] = test system: H596 cells; assay: Cell viability assay (CCK8); details: three days treatment
# Experimental: as §1, §2
# [3] = test system: c-MET (total form); assay: Target protein degradation assay (Western blot); details: for c-MET degradation H596: H596 cells, Western blot, standard concentration and time 5 μM, 72 hours; for degradation of the target MET protein: H596 or H1437 cells, summary of Table 3
# Experimental: This experiment assessed the tendency and extent of degradation of the target protein c-MET (total form) in cells treated with each of the compounds prepared in Examples 1 to 11.
# (§3) Cells (H596 or H1437 cells) were seeded in Φ60 or Φ100 culture dishes to reach 5×10^5 or 1×10^6 cells, and then cultured for more than 12 hours. After removing the media, the cells were treated with each respective compound prepared in Examples 1 to 11 at various conditions-concentrations (0, 2.5, 5, 10 μM), time (0, 6, 8, 24, 48, 72 hours), and standard concentration and time (5 μM, 72 hours) for all compounds. The cells were then harvested, lysed using RIPA buffer, and centrifuged (4° C., 13000 rpm, 15 min), to collect the supernatant in a new tube. Protein quantification was performed using the Bradford Assay, and samples were prepared for loading by boiling at 95° C. Western blotting was performed. The samples were loaded onto an SDS polyacrylamide gel (8% concentration). Electrophoresis was conducted at 80V, and then switched to 100-120V (when the loaded sample moves from the stacking gel to the running gel). After electrophoresis, the polyacrylamide gel was transferred onto the membrane (using transfer buffer diluted at 10× transfer buffer:methanol:D.W=1:2:7 ratio, cold, for 100V, 1 hour or 80V, 2 hours). The membrane was blocked with 5% skim milk for 30 minutes and washed with PBS-T (phosphate-buffered saline with Tween 20) buffer. The primary antibody was diluted in 5% BSA+NaN3 solution and reacted with the membrane for over 12 hours, followed by washing with PBS-T and reaction with 5% skim milk+secondary antibody for 1 hour and 30 minutes. After washing with PBS-T, the ECL solution was reacted with the membrane, and the bands were detected using an imaging device to confirm the degradation of the target protein c-MET.
# [4] = test system: c-MET (total form); assay: Target protein degradation assay (Western blot); details: H1437 cells, standard concentration and time 5 μM, 72 hours
# Experimental: as §3, with “After removing the media, the cells were treated with each respective compound prepared in Examples 1 to 11 at various conditions-concentrations (0, 2.5, 5, 10 μM), time (0, 6, 8, 24, 48, 72 hours), and standard concentration and time (5 μM, 72 hours) for all compounds.” left out
Compound,"IC50 ([1]; Homo sapiens, NCI-H1437, 72 h) [µM]","IC50 ([2]; Homo sapiens, NCI-H596, 72 h) [µM]",IC50 [1] [µM],IC50 [2] [µM],c-MET degradation H596 [3],c-MET degradation H1437 [4],degradation of the target MET protein [3]
CC(C)c1cc(C(=O)N(C)Cc2ccc(C(=O)NCCOCCOC(=O)N3CCC(n4cc(-c5cnc(N)c(O[C@@H](C)c6c(Cl)ccc(F)c6Cl)c5)cn4)CC3)cc2)c(O)cc1O [OZD-MET 02],4.06,2.59,,,1 (50% < degradation: 1),1 (50% < degradation: 1),
"CC(C)c1cc(C(=O)N(C)Cc2cccc(C(=O)O)c2)c(O)cc1O [Compound (d), reference compound]",,,,,No degradation,No degradation,no degradation
"C[C@@H](Oc1cc(-c2cnn(C3CCNCC3)c2)cnc1N)c1c(Cl)ccc(F)c1Cl [Crizotinib, reference compound]",31.9,20.3,,,No degradation,,no degradation
"CC(C)c1cc(C(=O)N(C)Cc2cccc(C(=O)NCCOCCOC(=O)Nc3ccc4nccc(Oc5ccc(NC(=O)C6(C(=O)Nc7ccc(F)cc7)CC6)cc5)c4c3)c2)c(O)cc1O [OZD-MET 06, 2-{2-[(3-{[1-(2,4-dihydroxy-5-isopropylphenyl)-N-methylformamido]methyl}phenyl)formamido]ethoxy}ethyl N-[4-(4-{1-[(4-fluorophenyl)carbamoyl]cyclopropanamido}phenoxy)quinolin-6-yl)carbamate]",4.25,3.38,,,2 (10% < degradation < 50%: 2),2 (10% < degradation < 50%: 2),
"2,4-dihydroxy-N-({4-[(5-{4-[3-(1-{imidazole[1,2-a]pyridin-6-yl}ethyl)-[1,2,3]triazolo[4,5-b]pyrazin-5-yl]pyrazol-1-yl}-5-oxopentyl) carbamoyl]phenyl}methyl)-5-isopropyl-N-methylbenzamide [OZD-MET 05]",,,5.71,4.72,2 (10% < degradation < 50%: 2),2 (10% < degradation < 50%: 2),
"CC(C)c1cc(C(=O)N(C)Cc2ccc(C(=O)O)cc2)c(O)cc1O [Compound (i), reference compound]",,,,,No degradation,No degradation,no degradation
"CC(C)c1cc(C(=O)N(C)Cc2cccc(C(=O)NCCOCCOC(=O)n3cc(-c4cnc5nnn([C@@H](C)c6ccc7nccn7c6)c5n4)cn3)c2)c(O)cc1O [OZD-MET 04, 2-{2-[(3-{[1-[2,4-dihydroxy-5-isopropylphenyl]-N-methylformamido]methyl}phenyl)formamido]ethoxy}ethyl 4-[3-(1-{imidazole[1,2-a]pyridin-6-yl}ethyl)-[1,2,3]triazolo[4,5-b]pyrazin-5-yl]pyrazole-1-carboxylate]",4.65,4.18,,,2 (10% < degradation < 50%: 2),3 (degradation < 10%: 3),
"CC(C)c1cc(C(=O)N(C)Cc2ccc(C(=O)NCCCCC(=O)N3CCC(COc4cnc(-c5cccc(Cn6nc(-c7cccc(C#N)c7)ccc6=O)c5)nc4)CC3)cc2)c(O)cc1O [OZD-MET 11, N-{[4-({5-[4-({[2-(3-{[3-(3-cyanophenyl)-6-oxopyridazin-1-yl]methyl}phenyl)pyrimidin-5-yl]oxy}methyl)piperidin-1-yl]-5-oxopentyl}carbamoyl)phenyl]methyl}-2,4-dihydroxy-5-isopropyl-N-methylbenzamide]",3.44,3.99,,,2 (10% < degradation < 50%: 2),1 (50% < degradation: 1),
"CC(C)c1cc(C(=O)N(C)Cc2ccc(C(=O)NCCCCC(=O)Nc3ccc(-c4cnc5ncc(Cc6ccc7ncccc7c6)n5n4)cc3F)cc2)c(O)cc1O [OZD-MET 09, N-[(4-{[4-({2-fluoro-4-[7-(quinolin-6-ylmethyl)imidazo[1,2-b][1,2,4]triazin-2-yl]phenyl}carbamoyl)butyl]carbamoyl}phenyl)methyl]-2,4-dihydroxy-5-isopropyl-N-methyl-benzamide]",3.11,4.18,,,2 (10% < degradation < 50%: 2),1 (50% < degradation: 1),
"CC(C)c1cc(C(=O)N(C)Cc2cccc(C(=O)NCCOCCOC(=O)N3CCC(COc4cnc(-c5cccc(Cn6nc(-c7cccc(C#N)c7)ccc6=O)c5)nc4)CC3)c2)c(O)cc1O [OZD-MET 10, 2-{2-[(3-{[1-(2,4-dihydroxy-5-isopropylphenyl)-N-methylformamido]methyl}phenyl)formamido]ethoxy}ethyl 4-({[2-(3-{[3-(3-cyanophenyl)-6-oxopyridazin-1-yl]methyl}phenyl)pyrimidin-5-yl]oxy}methyl)piperidine-1-carboxylate]",3.29,3.19,,,1 (50% < degradation: 1),1 (50% < degradation: 1),

# More lines, main results first:
"IC50 ([1]; Homo sapiens, NCI-H1437, 72 h) [µM]","IC50 ([2]; Homo sapiens, NCI-H596, 72 h) [µM]",IC50 [1] [µM],IC50 [2] [µM],Compound,c-MET degradation H596 [3],c-MET degradation H1437 [4],degradation of the target MET protein [3]
4.34,3.08,,,"CC(C)c1cc(C(=O)N(C)Cc2cccc(C(=O)NCCOCCOC(=O)Nc3ccc(-c4cnc5ncc(Cc6ccc7ncccc7c6)n5n4)cc3F)c2)c(O)cc1O [OZD-MET 08, 2-{2-[(3-{[1-(2,4-dihydroxy-5-isopropylphenyl)-N-methylformamido]methyl}phenyl)formamido]ethoxy}ethyl N-{2-fluoro-4-[7-(quinolin-6-ylmethyl)imidazo[1,2-b][1,2,4]triazin-2-yl]phenyl}carbamate]",1 (50% < degradation: 1),2 (10% < degradation < 50%: 2),
3.5,3.07,,,"CC(C)c1cc(C(=O)N(C)Cc2cccc(C(=O)NCCOCCOC(=O)N3CCC(n4cc(-c5cnc(N)c(O[C@@H](C)c6c(Cl)ccc(F)c6Cl)c5)cn4)CC3)c2)c(O)cc1O (stereo in doubt) [OZD-MET 01, 2-{2-[(3-{[1-(2,4-dihydroxy-5-isopropylphenyl)-N-methylformamido]methyl}phenyl)formamido]ethoxy}ethyl 4-(4-{6-amino-5-[1-(2,6-dichloro-3-fluorophenyl)ethoxy]pyridin-3-yl}pyrazol-1-yl)piperidine-1-carboxylate]",1 (50% < degradation: 1),1 (50% < degradation: 1),
2.64,1.97,,,"CC(C)c1cc(C(=O)N(C)Cc2ccc(C(=O)NCCCCC(=O)N3CCC(n4cc(-c5cnc(N)c(O[C@@H](C)c6c(Cl)ccc(F)c6Cl)c5)cn4)CC3)cc2)c(O)cc1O (stereo in doubt) [OZD-MET 03, N-{[4-({5-[4-(4-{6-amino-5-[1-(2,6-dichloro-3-fluorophenyl)ethoxy]pyridine-3-yl}pyrazol-1-yl)piperidin-1-yl]-5-oxopentyl}carbamoyl)phenyl]methyl}-2,4-dihydroxy-5-isopropyl-N-methylbenzamide]",1 (50% < degradation: 1),1 (50% < degradation: 1),
3.21,3.43,,,"CC(C)c1cc(C(=O)N(C)Cc2ccc(C(=O)NCCCCC(=O)Nc3ccc4nccc(Oc5ccc(NC(=O)C6(C(=O)Nc7ccc(F)cc7)CC6)cc5)c4c3)cc2)c(O)cc1O [OZD-MET 07, N′1-{4-[(6-{5-[(4-{[1-(2,4-dihydroxy-5-isopropylphenyl)-N-methylformamido]methyl}phenyl)formamido]pentanamido}quinolin-4-yl)oxy]phenyl}-N1-(4-fluorophenyl)cyclopropane-1,1-dicarboxamide]",1 (50% < degradation: 1),2 (10% < degradation < 50%: 2),
